Where only a bound is given, the exact number is not on record here.

The IC50 is the concentration at which inhibition is half-maximal.

In this assay the target is T1, human acetyl-CoA carboxylase 2 (ACC2) (Homo sapiens, UniProt O00763).
T1 construct: The cDNA encoding amino acids 144 to 2458 of human acetyl-CoA carboxylase 2; made in house; host or cells: Sf9 insect cells (baculovirus, pFastBac1)
T1 sequence (O00763 144-2458): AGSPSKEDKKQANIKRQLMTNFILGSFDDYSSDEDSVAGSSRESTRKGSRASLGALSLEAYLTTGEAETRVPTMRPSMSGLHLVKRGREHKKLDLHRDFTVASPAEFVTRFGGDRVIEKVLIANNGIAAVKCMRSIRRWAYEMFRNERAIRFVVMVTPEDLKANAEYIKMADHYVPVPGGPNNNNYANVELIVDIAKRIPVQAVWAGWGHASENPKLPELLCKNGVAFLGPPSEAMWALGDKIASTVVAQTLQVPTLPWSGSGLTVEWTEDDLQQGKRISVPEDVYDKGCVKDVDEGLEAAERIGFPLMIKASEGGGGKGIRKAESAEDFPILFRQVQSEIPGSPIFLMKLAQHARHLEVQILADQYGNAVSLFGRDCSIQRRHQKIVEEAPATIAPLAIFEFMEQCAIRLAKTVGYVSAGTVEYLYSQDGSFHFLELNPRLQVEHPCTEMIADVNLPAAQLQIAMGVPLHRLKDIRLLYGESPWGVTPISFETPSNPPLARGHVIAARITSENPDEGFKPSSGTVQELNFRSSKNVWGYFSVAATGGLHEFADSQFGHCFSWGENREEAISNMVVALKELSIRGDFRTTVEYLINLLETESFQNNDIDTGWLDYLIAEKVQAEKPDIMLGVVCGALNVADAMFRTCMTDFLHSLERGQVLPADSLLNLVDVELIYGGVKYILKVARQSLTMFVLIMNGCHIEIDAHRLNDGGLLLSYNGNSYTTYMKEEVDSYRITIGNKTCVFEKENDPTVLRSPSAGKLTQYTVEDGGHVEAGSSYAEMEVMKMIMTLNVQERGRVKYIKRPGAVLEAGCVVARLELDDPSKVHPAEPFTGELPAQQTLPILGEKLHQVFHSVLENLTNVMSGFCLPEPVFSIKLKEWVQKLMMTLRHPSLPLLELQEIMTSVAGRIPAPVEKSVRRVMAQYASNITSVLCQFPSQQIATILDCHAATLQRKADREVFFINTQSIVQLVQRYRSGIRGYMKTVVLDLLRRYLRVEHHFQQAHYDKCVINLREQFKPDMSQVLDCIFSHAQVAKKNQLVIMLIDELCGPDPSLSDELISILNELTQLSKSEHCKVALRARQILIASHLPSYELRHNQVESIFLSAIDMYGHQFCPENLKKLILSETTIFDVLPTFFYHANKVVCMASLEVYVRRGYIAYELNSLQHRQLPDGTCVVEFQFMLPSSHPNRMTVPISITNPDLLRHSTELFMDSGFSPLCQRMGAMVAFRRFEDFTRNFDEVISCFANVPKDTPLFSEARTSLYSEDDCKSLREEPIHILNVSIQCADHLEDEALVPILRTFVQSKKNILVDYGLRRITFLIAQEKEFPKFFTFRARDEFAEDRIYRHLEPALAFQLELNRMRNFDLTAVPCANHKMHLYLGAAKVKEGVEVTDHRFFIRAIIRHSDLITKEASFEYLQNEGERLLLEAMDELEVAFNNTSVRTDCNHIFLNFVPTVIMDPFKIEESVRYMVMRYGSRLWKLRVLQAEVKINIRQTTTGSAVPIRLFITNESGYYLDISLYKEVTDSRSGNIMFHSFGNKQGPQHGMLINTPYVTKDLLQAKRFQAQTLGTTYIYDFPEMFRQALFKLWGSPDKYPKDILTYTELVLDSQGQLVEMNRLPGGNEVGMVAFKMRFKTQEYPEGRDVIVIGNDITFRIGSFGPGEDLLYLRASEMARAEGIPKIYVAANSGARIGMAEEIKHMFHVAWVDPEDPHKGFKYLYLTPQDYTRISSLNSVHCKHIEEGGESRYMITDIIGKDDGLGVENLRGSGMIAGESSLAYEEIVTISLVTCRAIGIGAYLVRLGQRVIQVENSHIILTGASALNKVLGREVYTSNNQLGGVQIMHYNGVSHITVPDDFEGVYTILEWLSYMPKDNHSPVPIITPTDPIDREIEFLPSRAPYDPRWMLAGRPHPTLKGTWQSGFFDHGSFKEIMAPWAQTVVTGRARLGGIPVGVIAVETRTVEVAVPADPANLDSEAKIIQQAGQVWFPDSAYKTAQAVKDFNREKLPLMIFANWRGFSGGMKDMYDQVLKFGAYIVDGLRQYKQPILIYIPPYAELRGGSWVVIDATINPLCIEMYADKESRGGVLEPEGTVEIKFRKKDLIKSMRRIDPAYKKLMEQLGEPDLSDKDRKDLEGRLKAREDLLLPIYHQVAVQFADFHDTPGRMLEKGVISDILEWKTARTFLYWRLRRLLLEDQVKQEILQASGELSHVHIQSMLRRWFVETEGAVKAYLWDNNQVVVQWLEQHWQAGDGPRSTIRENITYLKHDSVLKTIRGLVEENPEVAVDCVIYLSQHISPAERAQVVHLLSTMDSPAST
Nature of the assay: Acetyl-CoA carboxylase enzyme assay (malonyl-CoA formation by LC/MS/MS). The class given is biochemical. The conditions noted are these: recombinant human ACC2 (aa 144-2458); read-out: IC50 ACC2. From the text:
The cDNA encoding amino acids 144 to 2458 of human acetyl-CoA carboxylase 2 (ACC2, GenBank Accession #NM_001093) was cloned into the SalI and NotI sites of pFastBac1 (Invitrogen; Carlsbad, Calif.). The resulting plasmid was used to generate a recombinant ACC2 baculovirus that was amplified and titered according to the protocols in the Bac-to-Bac baculovirus expression system manual (Invitrogen). The titered virus was used to infect Sf9 cells grown in Ex-Cell 420 serum-free medium (JRH Biosciences; Lenexa, Kans.). At 48 hours post-infection, the cells were harvested and stored at −80° C. until purification. ACC2 was purified using ammonium sulfate precipitation and anion exchange chromatography.
The enzymatic assay was run as follows: 30 μL of reaction buffer (100 mM HEPES pH 7.5, 20 mM MgCl2, 20 mM potassium citrate, 2 mM DTT) was added to a 384-well microtiter plate followed by 2 μL of the test compound (or 100% DMSO control). ACC2 protein (10 μL of a 50 nM working solution) was added to plate, which was incubated at room temperature for 15 minutes. A 30 μL addition of substrate solution (50 μM acetyl-CoA, 120 μM ATP, 2 mM KHCO3) was used to initiate the reactions which were quenched with 6% acetic acid (40 μL). ACC catalyzed malonyl-CoA formation was detected by LC/MS/MS using a Cohesive Technologies LX Series multiplex LC/MSIMS system configured with four binary pumps (Agilent Technologies; Palo Alto, Calif.), a dual arm autosampler (Leap Technologies; Cary, N.C.), and one Quattro Micro triple quadrupole mass spectrometer (Waters, Milford, Mass.), all run by Aria Software version 1.5 (Cohesive Technologies; Franklin, Mass.). Four samples were injected (20 μL) onto four Phenosphere NEXT C18 30×2 mm 5 μm columns (Phenomenex; Torrance, Calif.), eluted by four separate pumps, running identical gradients, through a column switching manifold with the one outlet fitted to the electrospray (ESI) source. Malonyl-CoA was eluted with 5 mM ammonium acetate, pH 4.5 (Buffer A) and 100% acetonitrile (Buffer B) via a step gradient. Argon was used as the collision gas and the following species were monitored via MRM detection: malonyl-CoA (853.8>346.9), internal standard (A: [^13C3]-malonyl-CoA, 857>350). The lower limit of detection is 0.3 uM for malonyl-CoA in this assay.
For `Cc1cc(C(=O)O)ccc1-c1cc2ccc(S(=O)(=O)N[C@H]3CC[C@H](C(=O)N[C@H](C)c4ccc(F)cc4)CC3)cc2[nH]1` [Example 301, 4-(6-(N-((1R,4r)-4-((R)-1-(4-fluorophenyl)ethylcarbamoyl)cyclohexyl)sulfamoyl)-1H-indol-2-yl)-3-methylbenzoic acid], the IC50 was below 10 nM.

With `Cn1c(C2CC2)c(Cl)c2ccc(S(=O)(=O)N[C@H]3CC[C@H](C(=O)N4CCN[C@@H](C(F)(F)F)C4)CC3)cc21` [Example 362, 3-chloro-2-cyclopropyl-1-methyl-N-((1R,4r)-4-((R)-3-(trifluoromethyl)piperazine-1-carbonyl)cyclohexyl)-1H-indole-6-sulfonamide], the IC50 came out at 75 nM.

Take `C[C@@H](NC(=O)[C@H]1CC[C@H](NS(=O)(=O)c2ccc3ncccc3c2)CC1)c1ccc(F)cc1` [Example 111, (1r,4R)-N-((R)-1-(4-fluorophenyl)ethyl)-4-(quinoline-6-sulfonamido)cyclohexanecarboxamide]: the IC50 amounted to 139 nM.

In the case of `COC(=O)[C@H]1CC[C@H](NS(=O)(=O)c2ccc3nc(-c4ccccc4)[nH]c3c2)CC1` [Example 98, (1r,4r)-methyl 4-(2-phenyl-1H-benzo[d]imidazole-6-sulfonamido)cyclohexanecarboxylate], the IC50 was 4300 nM.

`C[C@@H](NC(=O)[C@H]1CC[C@H](NS(=O)(=O)c2ccc3c(c2)OCCO3)CC1)c1ccc(F)cc1` [Example 123, (1r,4R)-4-(2,3-dihydrobenzo[b][1,4]dioxine-6-sulfonamido)-N-((R)-1-(4-fluorophenyl)ethyl)cyclohexanecarboxamide]: the IC50 worked out at 450 nM.

`Cc1cccc(-c2nc3ccc(S(=O)(=O)Nc4ccc(C(=O)OC(C)C)cc4)cc3[nH]2)c1` [Example 501, isopropyl 4-(2-m-tolyl-1H-benzo[d]imidazole-6-sulfonamido)benzoate]: the IC50 was determined as 1660 nM.

On to `CN1CCN(C(=O)[C@H]2CC[C@H](NS(=O)(=O)c3cnc4ccccc4c3)CC2)C(c2ccccc2)C1` (stereo partly shown) [Example 47, N-((1r,4r)-4-(4-methyl-2-phenylpiperazine-1-carbonyl)cyclohexyl)quinoline-3-sulfonamide], for which the IC50 turned out to be 4220 nM.

Turning to `Cc1ccc(C)c(-c2cc3ccc(S(=O)(=O)N[C@H]4CC[C@H](C(=O)N[C@H](C)c5ccc(F)cc5)CC4)cc3[nH]2)c1` [Example 298, (1r,4R)-4-(2-(2,5-dimethylphenyl)-1H-indole-6-sulfonamido)-N-((R)-1-(4-fluorophenyl)ethyl)cyclohexanecarboxamide], the IC50 came out at 24 nM.

Take `COc1ccc(Nc2nc3cc(S(=O)(=O)Nc4ccc(C(=O)OC(C)C)cc4)ccc3[nH]2)cc1` [Example 523, isopropyl 4-(2-(4-methoxyphenylamino)-1H-benzo[d]imidazole-5-sulfonamido)benzoate]: the half-inhibitory concentration (IC50) is 463 nM.

With `CCOC(=O)COc1ccc2cc(S(=O)(=O)N[C@H]3CC[C@H](C(=O)N[C@H](C)c4ccc(F)cc4)CC3)ccc2n1` [Example 73, ethyl 2-(6-(N-((1R,4r)-4-((R)-1-(4-fluorophenyl)ethylcarbamoyl)cyclohexyl)sulfamoyl)quinolin-2-yloxy)acetate], the IC50 stood at 175 nM.

For `C[C@@H](NC(=O)[C@H]1CC[C@H](NS(=O)(=O)c2ccc3nc(OCC(=O)O)ccc3c2)CC1)c1ccc(F)cc1` [Example 78, 2-(6-(N-((1R,4r)-4-((R)-1-(4-fluorophenyl)ethylcarbamoyl)cyclohexyl)sulfamoyl)quinolin-2-yloxy)acetic acid], the IC50 amounted to 470 nM.

In the case of `C[C@@H](NC(=O)[C@H]1CC[C@H](NS(=O)(=O)c2ccc3[nH]c(=O)oc3c2)CC1)c1ccc(F)cc1` [Example 659, (1r,4R)-N-((R)-1-(4-fluorophenyl)ethyl)-4-(2-oxo-2,3-dihydrobenzo[d]oxazole-6-sulfonamido)cyclohexanecarboxamide], the IC50 came out at 378 nM.

In the case of `CC(C)c1nnc([C@H]2CC[C@H](NS(=O)(=O)c3ccc4[nH]c(Nc5ccc(N6CCOCC6)cc5)nc4c3)CC2)o1` [Example 599, N-((1r,4r)-4-(5-isopropyl-1,3,4-oxadiazol-2-yl)cyclohexyl)-2-(4-morpholinophenylamino)-1H-benzo[d]imidazole-5-sulfonamide], the IC50 is 270 nM.

Take `C[C@@H](NC(=O)[C@H]1CC[C@H](NS(=O)(=O)c2ccc3c(c2)NCCO3)CC1)c1ccc(F)cc1` [Example 150, (1r,4R)-4-(3,4-dihydro-2H-benzo[b][1,4]oxazine-6-sulfonamido)-N-((R)-1-(4-fluorophenyl)ethyl)cyclohexanecarboxamide]: the IC50 came out at 105 nM.

For `Cc1cc(CO)ccc1-c1cc2ccc(S(=O)(=O)N[C@H]3CC[C@H](C(=O)N4CCNC(C(F)(F)F)C4)CC3)cc2[nH]1` (stereo partly shown) [Example 317, 2-(4-(hydroxymethyl)-2-methylphenyl)-N-((1r,4r)-4-(3-(trifluoromethyl)piperazine-1-carbonyl)cyclohexyl)-1H-indole-6-sulfonamide], the IC50 turned out to be 25 nM.

As for `CCOC(=O)Cc1nc2cc(S(=O)(=O)N[C@H]3CC[C@H](C(=O)N[C@H](C)c4ccc(F)cc4)CC3)ccc2[nH]1` [Example 667, ethyl 2-(5-(N-((1R,4r)-4-((R)-1-(4-fluorophenyl)ethylcarbamoyl)cyclohexyl)sulfamoyl)-1H-benzo[d]imidazol-2-yl)acetate], the IC50 came to 615 nM.

Consider `Cn1ccc2cc(S(=O)(=O)N[C@H]3CC[C@H](C(=O)N[C@H](CO)c4ccccc4)CC3)ccc21` [Example 670, (1r,4S)-N-((S)-2-hydroxy-1-phenylethyl)-4-(1-methyl-1H-indole-5-sulfonamido)cyclohexanecarboxamide], for which the IC50 turned out to be 66 nM.

Consider `COCc1ccc(-c2cc3ccc(S(=O)(=O)N[C@H]4CC[C@H](C(=O)N5CCOC[C@@H]5C)CC4)cc3[nH]2)cc1` [Example 436, 2-(4-(methoxymethyl)phenyl)-N-((1S,4r)-4-((S)-3-methylmorpholine-4-carbonyl)cyclohexyl)-1H-indole-6-sulfonamide], for which the IC50 stood at 20 nM.

`Cn1c(CCC(=O)O)c(Cl)c2ccc(S(=O)(=O)N[C@H]3CC[C@H](C(=O)N4CCCC4c4ccc(F)cc4)CC3)cc21` (stereo partly shown) [Example 372, 3-(3-chloro-6-(N-((1r,4r)-4-(2-(4-fluorophenyl)pyrrolidine-1-carbonyl)cyclohexyl)sulfamoyl)-1-methyl-1H-indol-2-yl)propanoic acid]: the IC50 was found to be 45 nM.

With `O=C([C@H]1CC[C@H](NS(=O)(=O)c2ccc3cc(-c4ccccc4C(F)(F)F)[nH]c3c2)CC1)N1CCCC(C(F)(F)F)C1` (stereo partly shown) [Example 330, 2-(2-(trifluoromethyl)phenyl)-N-((1r,4r)-4-(3-(trifluoromethyl)piperidine-1-carbonyl)cyclohexyl)-1H-indole-6-sulfonamide], the IC50 turned out to be 3600 nM.

Take `COc1ccc(-c2nc3ccc(S(=O)(=O)Nc4ccc(C(=O)OC(C)C)cc4)cc3[nH]2)cc1OC` [Example 516, isopropyl 4-(2-(3,4-dimethoxyphenyl)-1H-benzo[d]imidazole-6-sulfonamido)benzoate]: the IC50 came out at 1210 nM.

In the case of `C[C@@H](NC(=O)C1CCC(NS(=O)(=O)c2cnc3c(c2)N[C@H](Cc2ccccc2)CS3)CC1)c1ccc(F)cc1` (stereo partly drawn) [Example 190, 4-((R)-2-benzyl-2,3-dihydro-1H-pyrido[2,3-b][1,4]thiazine-7-sulfonamido)-N-((R)-1-(4-fluorophenyl)ethyl)cyclohexanecarboxamide], the IC50 was 35 nM.

As for `C[C@@H](NC(=O)[C@H]1CC[C@H](NS(=O)(=O)c2ccc3nc(NCCN(C)C)ccc3c2)CC1)c1ccc(F)cc1` [Example 215, (1r,4R)-4-(2-(2-(dimethylamino)ethylamino)quinoline-6-sulfonamido)-N-((R)-1-(4-fluorophenyl)ethyl)cyclohexanecarboxamide], the IC50 came to 125 nM.

As to `Cn1c(-c2ccccc2)c(Cl)c2ccc(S(=O)(=O)N[C@H]3CC[C@H](C(=O)N4CCCC(C(C)(C)O)C4)CC3)cc21` (stereo partly shown) [Example 384, 3-chloro-N-((1r,4r)-4-(3-(2-hydroxypropan-2-yl)piperidine-1-carbonyl)cyclohexyl)-1-methyl-2-phenyl-1H-indole-6-sulfonamide], the IC50 was below 10 nM.

Regarding `C[C@@H]1CN(C(=O)[C@H]2CC[C@H](NS(=O)(=O)c3ccc4c(C#N)c(C5CC5)n(C)c4c3)CC2)C[C@H](C)O1` [Example 417, 3-cyano-2-cyclopropyl-N-((1R,4r)-4-((2S,6R)-2,6-dimethylmorpholine-4-carbonyl)cyclohexyl)-1-methyl-1H-indole-6-sulfonamide], the IC50 worked out at 80 nM.

The record behind these values is US8697739B2, “Bicyclic acetyl-CoA carboxylase inhibitors and uses thereof” (Novartis AG, priority 2010, dated 2014).
